Common to all, as to assay type: cell-based
Assay [1] has as its target T1, hGLP-1R (Homo sapiens, UniProt P43220). Nature of the assay: Functional cAMP activation in the presence of 0.1% casein (no HSA). The settings on record: read-out: Relative cAMP EC50, hGLP-1R.
Assay [2] addresses T1, hGLP-1R. Nature of the assay: Functional cAMP activity in the presence of 1% HSA. The following applies: read-out: cAMP Rel EC50, hGLP-1R.
Assay [3] has as its target T2, hGIPR (Homo sapiens, UniProt P48546).
T2 sequence (P48546 22-466): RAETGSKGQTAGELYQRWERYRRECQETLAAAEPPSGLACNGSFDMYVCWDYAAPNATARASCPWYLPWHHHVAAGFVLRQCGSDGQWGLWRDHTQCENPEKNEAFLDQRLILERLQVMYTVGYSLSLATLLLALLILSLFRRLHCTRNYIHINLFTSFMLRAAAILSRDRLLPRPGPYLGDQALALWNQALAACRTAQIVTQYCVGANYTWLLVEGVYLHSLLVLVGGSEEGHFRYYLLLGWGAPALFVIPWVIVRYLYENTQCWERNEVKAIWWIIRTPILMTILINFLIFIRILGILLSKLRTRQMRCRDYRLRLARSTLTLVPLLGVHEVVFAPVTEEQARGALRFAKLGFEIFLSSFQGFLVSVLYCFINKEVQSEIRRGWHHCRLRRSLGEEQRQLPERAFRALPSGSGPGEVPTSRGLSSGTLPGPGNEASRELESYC
Nature of the assay: Functional cAMP activation in the presence of 0.1% casein (no HSA). The following applies: read-out: Relative cAMP EC50, hGIPR.

A further assay deals with hGcgR (Homo sapiens, UniProt P47871). The description is as above. The following applies: read-out: Relative cAMP EC50, hGcgR.
The target in another assay is human GcgR (Homo sapiens, UniProt P47871). Nature of the assay: Functional cAMP activity in the presence of 1% HSA. The settings on record: read-out: cAMP Rel EC50, hGcgR.
The target of assay [4] is T2, hGIPR. Nature of the assay: Functional cAMP activity in the presence of 1% HSA. The following applies: read-out: cAMP Rel EC50, hGIPR.
[5] abbreviates: 0.1% casein, no HSA, geometric mean.
[6] abbreviates: in the presence of 0.1% casein (no HSA), geometric mean.

Our source for the EC50 values is patent publication US20240270821A1, “GIP/GLP1/GCG TRI-RECEPTOR AGONISTS AND USES THEREOF” (priority 2023, published 2024).

Read-outs that look alike come from different tables or passages of the source. Starred links: 1 amine or outer side, 2 acyl side, 3 side chain; linkers in the order of their positions; H or OH if unused. Non-standard residues stand in square brackets, D forms with d. Groups on a side chain read outwards from the residue. *: point of attachment. C20 diacid = O=C(O)CCCCCCCCCCCCCCCCCCC(=O)*; C18 diacid = O=C(O)CCCCCCCCCCCCCCCCC(=O)*; αMePhe(2-F) = C[C@](N)(Cc1ccccc1F)C(=O)O; γGlu = O=C(O)[C@H](CCC(=O)[*:2])N[*:1]; αMe4Pal = C[C@](N)(Cc1ccncc1)C(=O)O; αMeY = C[C@](N)(Cc1ccc(O)cc1)C(=O)O; αMeF = C[C@](N)(Cc1ccccc1)C(=O)O; 4Pal = N[C@@H](Cc1ccncc1)C(=O)O; αMeL = CC(C)C[C@](C)(N)C(=O)O; αMeS = C[C@](N)(CO)C(=O)O; Orn = NCCC[C@H](N)C(=O)O; AEEA = NCCOCCOCC(=O)O; Aib = CC(C)(N)C(=O)O
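Throughout, for Relative cAMP EC50, hGIPR: intracellular cAMP rise after 30 min at 37 °C read by HTRF against a standard curve, scaled between buffer alone (0%) and top control ligand concentration (100%), four-parameter fit.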
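Throughout, for Relative cAMP EC50, hGLP-1R: intracellular cAMP rise after 30 min at 37 °C read by HTRF, normalized between buffer only (0%) and maximal control ligand (100%), four-parameter variable-slope fit.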
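Throughout, for Relative cAMP EC50, hGcgR: intracellular cAMP rise after 30 min at 37 °C, read by HTRF against a cAMP standard curve, scaled from buffer only (0%) to maximal control ligand response (100%).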

T1 sequence (P43220 24-463): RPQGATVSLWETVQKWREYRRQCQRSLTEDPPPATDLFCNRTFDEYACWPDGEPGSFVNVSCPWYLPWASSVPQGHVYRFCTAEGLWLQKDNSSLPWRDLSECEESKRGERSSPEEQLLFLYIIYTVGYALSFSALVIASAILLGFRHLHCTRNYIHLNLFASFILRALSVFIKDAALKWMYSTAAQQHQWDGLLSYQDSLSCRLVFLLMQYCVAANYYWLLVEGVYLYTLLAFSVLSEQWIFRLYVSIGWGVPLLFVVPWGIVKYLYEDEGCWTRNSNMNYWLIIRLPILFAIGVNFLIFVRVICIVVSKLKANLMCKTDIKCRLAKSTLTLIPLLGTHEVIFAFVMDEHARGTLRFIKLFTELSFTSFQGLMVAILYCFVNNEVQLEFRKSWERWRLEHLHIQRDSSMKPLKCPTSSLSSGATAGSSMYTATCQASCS
Chain of hGcgR (P47871 26-477): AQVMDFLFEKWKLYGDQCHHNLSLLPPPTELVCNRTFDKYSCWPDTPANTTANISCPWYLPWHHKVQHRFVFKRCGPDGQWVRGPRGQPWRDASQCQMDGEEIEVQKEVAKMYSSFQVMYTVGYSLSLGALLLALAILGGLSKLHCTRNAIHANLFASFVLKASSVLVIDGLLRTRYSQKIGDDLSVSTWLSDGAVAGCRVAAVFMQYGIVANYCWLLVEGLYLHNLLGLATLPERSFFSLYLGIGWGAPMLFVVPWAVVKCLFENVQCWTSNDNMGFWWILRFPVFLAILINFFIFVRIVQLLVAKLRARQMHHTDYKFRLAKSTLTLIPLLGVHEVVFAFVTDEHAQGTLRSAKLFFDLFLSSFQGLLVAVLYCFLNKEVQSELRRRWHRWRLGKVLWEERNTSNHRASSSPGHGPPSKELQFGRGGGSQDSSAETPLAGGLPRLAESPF
Chain of human GcgR (P47871 26-477): as above

As usually defined, the EC50 is the concentration needed to bring the measured effect to its halfway point. `CC[C@H](C)[C@H](NC(=O)[C@H](CO)NC(=O)[C@H](Cc1ccc(O)cc1)NC(=O)[C@H](CC(=O)O)NC(=O)[C@H](CO)NC(=O)[C@@H](NC(=O)[C@](C)(Cc1ccccc1)NC(=O)[C@@H](NC(=O)CNC(=O)[C@H](CCC(N)=O)NC(=O)C(C)(C)NC(=O)[C@@H](N)Cc1ccc(O)cc1)[C@@H](C)O)[C@@H](C)O)C(=O)N[C@@H](CC(C)C)C(=O)N[C@@H](CC(C)C)C(=O)N[C@@H](CC(=O)O)C(=O)N[C@@H](CCCCN)C(=O)N[C@@H](CCCCNC(=O)COCCOCCNC(=O)COCCOCCNC(=O)CC[C@H](NC(=O)CCCCCCCCCCCCCCCCC(=O)O)C(=O)O)C(=O)N[C@@H](C)C(=O)N[C@@H](CCC(N)=O)C(=O)NC(C)(C)C(=O)N[C@@H](C)C(=O)N[C@@H](Cc1ccccc1)C(=O)N[C@H](C(=O)N[C@H](CCC(=O)O)C(=O)N[C@@H](Cc1ccc(O)cc1)C(=O)N[C@@H](CC(C)C)C(=O)N[C@@H](CC(C)C)C(=O)N[C@@H](CCC(=O)O)C(=O)NCC(=O)NCC(=O)N1CCC[C@H]1C(=O)N[C@@H](CO)C(=O)N[C@@H](CO)C(=O)NCC(=O)N[C@@H](C)C(=O)N1CCC[C@H]1C(=O)N1CCC[C@H]1C(=O)N1CCC[C@H]1C(=O)N[C@@H](CO)C(N)=O)[C@@H](C)CC` [Example 419]: the EC50 on hGLP-1R [1] amounted to 0.615 nM; at hGLP-1R [2], 65.5 nM; on hGIPR [3], 0.0235 nM; on hGcgR it was 8.52 nM; on human GcgR, 1650 nM; on hGIPR [4] it was 9.47 nM.
Turning to “H-Y[Aib]QGT[αMePhe(2-F)]TSD[4Pal][αMeS]I[αMeL]LD[Orn]K([AEEA-γGlu-C18 diacid])AQ[αMe4Pal]EFI[dE][αMeY]LIEGGPPS[Aib][Orn]PPPEGE-NH2 [Example 1194]”, the EC50 at hGLP-1R [1] (setting [5]) was 0.51 nM; at hGLP-1R [2], 57.4 nM; on hGIPR [3] (setting [5]) it was 0.00725 nM; on hGcgR (setting [5]), 2.02 nM; on human GcgR it was 215 nM; on hGIPR [4], 0.759 nM.
As for “H-Y[Aib]QGTFTSD[4Pal]SQ[αMeL]LD[Orn]K([AEEA-γGlu-C18 diacid])AQ[αMe4Pal]AFIE[αMeY]LIA[Aib]GPSSGAPPPSGSEE-NH2 [Example 1110]”, the EC50 at hGLP-1R [1] (setting [6]) was found to be 0.508 nM; on hGLP-1R [2], 52 nM; at hGIPR [3] (setting [6]) it was 0.059 nM; on hGcgR (setting [6]) it was 5.91 nM; on human GcgR, 449 nM; at hGIPR [4], 5.4 nM.
On to “H-Y[Aib]QGT[αMePhe(2-F)]TSD[4Pal][αMeS]I[αMeL]LD[Orn]K([γGlu-γGlu-C18 diacid])AA[Aib]EFI[dE][αMeY]LVEGGPSSGEPPPSGS-NH2 [Example 695]”, for which the EC50 on hGLP-1R [1] was 0.254 nM; at hGLP-1R [2], 19.5 nM; on hGIPR [3] it was 0.0136 nM; at hGcgR, 1.93 nM; at human GcgR, 164 nM; on hGIPR [4], 0.772 nM.
“H-Y[Aib]QGTFTSDFSK[αMeL]LDKK([AEEA-γGlu-C20 diacid])AQ[Aib]AFIEYLLEGGPSSGEPPPGEG[AEEA]-NH2 [Example 54]”: the EC50 at hGLP-1R [1] (setting [6]) came to 3.95 nM; at hGLP-1R [2], 1300 nM; at hGIPR [3] (setting [6]), 0.502 nM; at hGcgR (setting [6]) it was 3.77 nM; at human GcgR it was 1940 nM; at hGIPR [4] it was 168 nM.
For “H-Y[Aib]QGT[αMeF]TSD[4Pal][αMeS]I[αMeL]LD[Orn]K([γGlu-γGlu-C18 diacid])AQ[αMe4Pal]EFI[dE][αMeY]LIEGGPSSGAPPPSGSE-NH2 [Example 1172]”, the concentration for a half-maximal effect (EC50) was found to be 0.44 nM on hGLP-1R [1] (setting [6]); 45.5 nM on hGLP-1R [2]; 0.00886 nM at hGIPR [3] (setting [6]); 2.52 nM on hGcgR (setting [6]); 303 nM on human GcgR; 0.7 nM on hGIPR [4].
Turning to “H-Y[Aib]QGTFTSD[4Pal]SQ[αMeL]LDKK([γGlu-γGlu-C18 diacid])AQ[αMe4Pal]QFIE[αMeY]LIEGGPSSGAPPPSGS-NH2 [Example 934]”, the EC50 on hGLP-1R [1] (setting [6]) was found to be 0.649 nM; at hGLP-1R [2], 175 nM; on hGIPR [3] (setting [6]) it was 0.0738 nM; on hGcgR (setting [6]) it was 2.73 nM; at human GcgR, 1380 nM; on hGIPR [4] it was 28.1 nM.
For “H-Y[Aib]QGT[αMePhe(2-F)]TSD[4Pal][αMeS]I[αMeL]LD[Orn]K([AEEA-γGlu-C18 diacid])AQ[Aib][Orn]FI[dE][αMeY]LIEGGPSSGEPPPEGTGE-NH2 [Example 697]”, the concentration for a half-maximal effect (EC50) on hGLP-1R [1] is 0.235 nM; on hGLP-1R [2] it was 18.2 nM; at hGIPR [3], 0.0109 nM; at hGcgR, 1.71 nM; at human GcgR, 130 nM; on hGIPR [4], 0.607 nM.
Regarding `CC[C@H](C)[C@H](NC(=O)[C@H](Cc1ccccc1)NC(=O)[C@H](C)NC(=O)C(C)(C)NC(=O)[C@H](CCC(N)=O)NC(=O)[C@H](C)NC(=O)[C@H](CCCCNC(=O)CC[C@H](NC(=O)CC[C@H](NC(=O)CCCCCCCCCCCCCCCCC(=O)O)C(=O)O)C(=O)O)NC(=O)[C@H](CCCCN)NC(=O)[C@H](CC(=O)O)NC(=O)[C@H](CC(C)C)NC(=O)[C@H](CC(C)C)NC(=O)[C@@H](NC(=O)[C@H](CO)NC(=O)[C@H](Cc1ccncc1)NC(=O)[C@H](CC(=O)O)NC(=O)[C@H](CO)NC(=O)[C@@H](NC(=O)[C@](C)(Cc1ccccc1F)NC(=O)[C@@H](NC(=O)CNC(=O)[C@H](CCC(N)=O)NC(=O)C(C)(C)NC(=O)[C@@H](N)Cc1ccc(O)cc1)[C@@H](C)O)[C@@H](C)O)[C@@H](C)CC)C(=O)N[C@@H](CCC(=O)O)C(=O)N[C@@H](Cc1ccc(O)cc1)C(=O)N[C@@H](CC(C)C)C(=O)N[C@@H](CCC(=O)O)C(=O)N[C@@H](CCC(=O)O)C(=O)NCC(=O)NCC(=O)N1CCC[C@H]1C(=O)N[C@@H](CO)C(=O)N[C@@H](CO)C(=O)NCC(=O)N[C@@H](C)C(=O)N1CCC[C@H]1C(=O)N1CCC[C@H]1C(=O)N1CCC[C@H]1C(=O)N[C@@H](CCC(=O)O)C(=O)NCC(=O)N[C@H](C(=O)NCC(=O)N[C@@H](CCC(=O)O)C(N)=O)[C@@H](C)O` [Example 660], the EC50 on hGLP-1R [1] was 1.27 nM; at hGLP-1R [2], 76.9 nM; at hGIPR [3], 0.0646 nM; at hGcgR it was 7.38 nM; at human GcgR, 455 nM; at hGIPR [4] it was 4.64 nM.
As for “H-Y[Aib]QGTFTSD[4Pal]SQ[αMeL]LD[Orn]K([AEEA-γGlu-C18 diacid])AQ[αMe4Pal]AFIE[αMeY]LIA[Aib]GPSSGEPPPSGSEE-NH2 [Example 1099]”, the EC50 at hGLP-1R [1] (setting [6]) was determined as 0.73 nM; on hGLP-1R [2], 75.8 nM; at hGIPR [3] (setting [6]) it was 0.076 nM; on hGcgR (setting [6]), 3.47 nM; at human GcgR, 472 nM; at hGIPR [4] it was 8.64 nM.
Regarding “H-Y[Aib]QGTFTSD[4Pal]SQ[αMeL]LD[Orn]K([γGlu-γGlu-C18 diacid])AQ[Aib]AFIE[αMeY]LLEGGPSSGAPPPSGSEE-NH2 [Example 946]”, the EC50 amounted to 2.05 nM on hGLP-1R [1] (setting [6]); 576 nM on hGLP-1R [2]; 0.353 nM on hGIPR [3] (setting [6]); 16.5 nM at hGcgR (setting [6]); 1950 nM at human GcgR; 57.4 nM at hGIPR [4].
As to “H-Y[Aib]QGTFTSD[4Pal]SK[αMeL]LDKK([γGlu-γGlu-C18 diacid])AQ[Aib]AFIEYLIE[Aib]GPSSGAPPPSGSE-NH2 [Example 904]”, the EC50 on hGLP-1R [1] (setting [6]) worked out at 1.94 nM; on hGLP-1R [2] it was 198 nM; at hGIPR [3] (setting [6]), 0.194 nM; at hGcgR (setting [6]) it was 9.88 nM; on human GcgR it was 1330 nM; on hGIPR [4], 15 nM.
